Consider 15 compounds from paper PMC3100252, “A theoretical entropy score as a single value to express inhibitor selectivity” (BMC Bioinformatics, 2011).

For orientation: Kd means the constant that tells how readily two partners part at equilibrium.

Assay [1] concerns 290 kinases (excluding mutants). The conditions noted are these: cited from earlier work; for Gini: 38 inhibitors on 290 non-mutant kinases; for S10x: fraction of kinases hit at 10 times the Kd of the target.
Assay [2] relates to 222 human kinases. Kind of assay: Millipore kinase profiling (radioactive filter binding activity assay at [ATP] = KM,ATP) and selectivity metrics calculated from it. The arrangement: selectivity score: scale not given here. It counts as biochemical. The note with it: for Ka-Gini score / Pmax / S10x / selectivity score: calculated from Millipore activity data; for selectivity entropy: calculated from Millipore activity data (pEC50), [ATP] = KM,ATP. The text has this:
As a next step we selected 16 compounds from the public profile (Ambit), and measured activity data on these using a different profiling service (Millipore, data available as Additional file 2). […] Also for these new data, we calculated the selectivity metrics (Uitdehaag_S2). In the ideal case, the selectivity values are similar irrespective of profiling technology (in the same way that a Kd value is ideally independent of laboratory and assay format). The data of both methods are plotted in Figure 2.
(§1) It is worth to note that the partition coefficient is the same as ϕl in our entropy equation (eq. 2).
The Gini score was calculated from data on %-inhibition. […] In addition, to work more directly with Kds, we also introduce a Ka-Gini score, in which association constants are used for rank-ordering the kinase profile. […] All calculations were done in Microsoft Excel.
For comparing profiles across methods (Figure 2), we selected 16 kinase inhibitors of the Ambit profile (Table 2) and submitted these to the kinase profiling service from Millipore (http://www.millipore.com/drugdiscovery/svp3/kpservices, data available as Additional file 2). Both profiling methods are described earlier and differ (among other variations) in the following way: Ambit uses a competitive binding setup in absence of ATP on kinases from T7 or HEK293 expression systems. Millipore uses a radioactive filter binding activity assay, with kinases purified from Escherichia coli or baculovirus expression systems.

For assay [3], the system named is 290 kinases (excluding mutants). It counts as binding. The note with it: for Ka-Gini: Gini score calculated directly on Kas of the Ambit dataset (Kds of ref 5); for entropies (selectivity entropy, Ssel): calculated from Kds of the Ambit dataset (ref 5); for entropies (selectivity entropy, Ssel) / number of kinases inhibited below 3 μM: 290 kinases; for number of kinases inhibited below 3 μM: Ambit profile; for selectivity rank by Ka-Gini / selectivity rank by Pmax / selectivity rank by selectivity entropy: rank among 38 inhibitors, Ambit dataset.
Excerpt: Having defined the entropy, we next investigated its performance relative to the most widely-used methods, on a public profiling dataset of 38 inhibitors on 290 non-mutant kinases (Table 1 and Additional file 1). […] To this we added a Ka-Gini value and the selectivity entropy. The Ka-Gini is a Gini score directly calculated on Kas, without reverting to %-inhibition values (see below). […] In addition, to get an overview of the profiling raw data, we appended an activity-based heat map (Uitdehaag_S1).
as §1
The Gini score was calculated from data on %-inhibition. […] In addition, to work more directly with Kds, we also introduce a Ka-Gini score, in which association constants are used for rank-ordering the kinase profile. […] All calculations were done in Microsoft Excel. […]

Assay [4] concerns the target PDGFRβ. The note with it: Ambit profiling raw data; cited from earlier work.
Where [5] appears, read: Ambit dataset, values taken from earlier work.
Setting [6] is: Ambit dataset, fraction of kinases hit below 3 μM, values taken from earlier work.

Where two headings read alike, the source gives them in different places.

Consider `Cc1ccc(F)c(NC(=O)Nc2ccc(-c3cccc4[nH]nc(N)c34)cc2)c1` [ABT-869, linifanib], for which, in assay [1] (setting [5]), the Gini was 0.82, the S10x was 0.01 and the “Pmax (partition index)” value is on record as 0.32. Further, the “S3uM (selectivity score S(3 μM))” value in assay [1] (setting [6]) was 0.16. In assay [2], the Ka-Gini score was 0.968, the Pmax is listed as 0.132, the S10x is 0.025 and the selectivity score was 0.235. Further, the selectivity entropy in assay [2] was 2.834. In assay [3], the Ka-Gini is 0.98 and the “entropies (selectivity entropy, Ssel)” value is reported as 1.93.

Consider `CCN(CCO)CCCOc1ccc2c(Nc3cc(CC(=O)Nc4cccc(F)c4)[nH]n3)ncnc2c1` [AZD1152HQPA], for which, in assay [1] (setting [5]), the Gini is listed as 0.78, the S10x was 0.02 and the “Pmax (partition index)” value is 0.34. Also, the “S3uM (selectivity score S(3 μM))” value in assay [1] (setting [6]) was 0.10. In addition, in assay [2], the Ka-Gini score was 0.993, the Pmax is reported as 0.603, the S10x is listed as 0.007 and the selectivity score is reported as 0.041. The selectivity entropy in assay [2] is 1.366. In addition, in assay [3], the Ka-Gini is recorded as 0.98 and the “entropies (selectivity entropy, Ssel)” value is 1.91.

As to `Cc1ccc(-n2nc(C(C)(C)C)cc2NC(=O)Nc2ccc(OCCN3CCOCC3)c3ccccc23)cc1` [BIRB-796, doramapimod], the Gini in assay [1] (setting [5]) was 0.81. For the same compound, in assay [2], the Ka-Gini score is reported as 0.984, the Pmax is 0.440 and the S10x is given as 0.011. For the same compound, the Ka-Gini in assay [3] is 0.99.

As for `Cn1c(Nc2ccc(C(F)(F)F)cc2)nc2cc(Oc3ccnc(-c4ncc(C(F)(F)F)[nH]4)c3)ccc21` [CHIR265], the Gini in assay [1] (setting [5]) was 0.74. For the same compound, in assay [2], the Ka-Gini score is on record as 0.982, the Pmax is recorded as 0.304 and the S10x is on record as 0.014. Also, in assay [3], the Ka-Gini was 0.96.

For `Cc1nc(Nc2ncc(C(=O)Nc3c(C)cccc3Cl)s2)cc(N2CCN(CCO)CC2)n1` [Dasatinib, dasatinib], in assay [1] (setting [5]), the Gini was 0.79. In addition, in assay [2], the Ka-Gini score is given as 0.943, the Pmax is on record as 0.041 and the S10x is listed as 0.070. The Ka-Gini in assay [3] is listed as 0.93.

As to `COc1cc2c(N3CCN(C(=O)Nc4ccc(OC(C)C)cc4)CC3)ncnc2cc1OCCCN1CCCCC1` [MLN-518, tandutinib], in assay [1] (setting [5]), the Gini was 0.74, the S10x is reported as 0.01 and the “Pmax (partition index)” value was 0.26. Besides, in assay [1] (Ambit profile, 4 kinases not named), the “potencies on the 4 kinases hit with roughly equal potencies” value was 2 to 10 nM. Further, the “S3uM (selectivity score S(3 μM))” value in assay [1] is given as 0.06. Further, in assay [2], the Ka-Gini score is given as 0.993, the Pmax is recorded as 0.621, the S10x is reported as 0.005 and the selectivity score was 0.032. Moreover, in assay [2], the selectivity entropy is listed as 1.300. Also, in assay [3], the “number of kinases inhibited below 3 μM” value came out at 10 kinases; the Ka-Gini is given as 0.98; the “entropies (selectivity entropy, Ssel)” value was 1.58; the “selectivity rank by Ka-Gini” value came to 14. Also, in assay [3], the “selectivity rank by Pmax” value is listed as 26 and the “selectivity rank by selectivity entropy” value is 15.

For `O=C(O)c1ccc(Nc2ncc3c(n2)-c2ccc(Cl)cc2C(c2c(F)cccc2F)=NC3)cc1` [MLN-8054], in assay [1] (setting [5]), the Gini is given as 0.75, the S10x is recorded as 0.01 and the “Pmax (partition index)” value was 0.36. Further, the “S3uM (selectivity score S(3 μM))” value in assay [1] (setting [6]) is recorded as 0.13. In addition, in assay [2], the Ka-Gini score is given as 0.980, the Pmax is given as 0.617, the S10x is listed as 0.002 and the selectivity score is 0.154. The selectivity entropy in assay [2] is given as 1.903. For the same compound, in assay [3], the Ka-Gini is recorded as 0.97 and the “entropies (selectivity entropy, Ssel)” value is 1.95.

On to `Oc1cccc(-c2nc(N3CCOCC3)c3oc4ncccc4c3n2)c1` [PI-103], for which, in assay [1] (setting [5]), the Gini was 0.41, the S10x is listed as 0.00 and the “Pmax (partition index)” value is 0.97. In addition, in assay [2], the Ka-Gini score was 0.995, the Pmax is reported as 0.561, the S10x was 0.005 and the selectivity score is reported as 0.014. Moreover, the selectivity entropy in assay [2] is given as 0.876. Further, in assay [3], the Ka-Gini is given as 0.99 and the “entropies (selectivity entropy, Ssel)” value is 0.05.

`NC(=O)c1ccc(-c2nc(-c3ccc4c(c3)OCO4)c(-c3ccccn3)[nH]2)cc1` [SB-431542]: in assay [1] (setting [5]), the Gini is reported as 0.42, the S10x is 0.01 and the “Pmax (partition index)” value is recorded as 0.14. In assay [1] (setting [6]), the “S3uM (selectivity score S(3 μM))” value is listed as 0.02. For the same compound, the IC50 in assay [1] (Ambit profile, four kinases not named, read-out: IC50s on the four kinases hit with very similar IC50s) is 100 to 300 nM. In addition, in assay [3], the “number of kinases inhibited below 3 μM” value is given as 5 kinases; the Ka-Gini is reported as 0.98; the “entropies (selectivity entropy, Ssel)” value is listed as 1.56; the “selectivity rank by Ka-Gini” value is listed as 15. In assay [3], the “selectivity rank by Pmax” value is reported as 31 and the “selectivity rank by selectivity entropy” value is recorded as 14.

Take `Cc1[nH]c(/C=C2\C(=O)Nc3ccc(F)cc32)c(C)c1C(=O)NC[C@H](O)CN1CCOCC1` [SU-14813]: in assay [1] (setting [5]), the Gini is given as 0.70, the S10x is recorded as 0.02 and the “Pmax (partition index)” value is 0.18. Moreover, the “S3uM (selectivity score S(3 μM))” value in assay [1] (setting [6]) is reported as 0.51. For the same compound, in assay [4], the Kd is 0.29 nM. Further, in assay [3], the Ka-Gini was 0.97 and the “entropies (selectivity entropy, Ssel)” value was 2.04.

Consider `CNC(=O)c1cc(Oc2ccc(NC(=O)Nc3ccc(Cl)c(C(F)(F)F)c3)cc2)ccn1` [Sorafenib, sorafenib], for which, in assay [1] (setting [5]), the Gini is 0.82 and the S10x is reported as 0.10. For the same compound, in assay [2], the Ka-Gini score is reported as 0.975, the Pmax is 0.149 and the S10x was 0.029. The Ka-Gini in assay [3] is reported as 0.97.

As for `CCN(CC)CCNC(=O)c1c(C)[nH]c(/C=C2\C(=O)Nc3ccc(F)cc32)c1C` [Sunitinib, sunitinib], in assay [1] (setting [5]), the Gini is reported as 0.67 and the S10x is listed as 0.02. In assay [2], the Pmax is 0.107 and the S10x is 0.038. In addition, the “number of kinases inhibited below 3 μM” value in assay [3] is recorded as 181 kinases.

For the compound `Cc1cc(Nc2cc(N3CCN(C)CC3)nc(Sc3ccc(NC(=O)C4CC4)cc3)n2)[nH]n1` [VX-680, tozasertib], in assay [1] (setting [5]), the Gini is recorded as 0.76, the S10x was 0.03 and the “Pmax (partition index)” value is reported as 0.15. Further, the “S3uM (selectivity score S(3 μM))” value in assay [1] (setting [6]) is reported as 0.38. Moreover, in assay [2], the Ka-Gini score was 0.972, the Pmax was 0.278, the S10x is on record as 0.020 and the selectivity score is reported as 0.199. Further, the selectivity entropy in assay [2] is 2.625. Further, in assay [3], the Ka-Gini is given as 0.93 and the “entropies (selectivity entropy, Ssel)” value was 3.09.

For `O=c1ncn2nc(Sc3ccc(F)cc3F)ccc2c1-c1c(Cl)cccc1Cl` [VX-745], in assay [1] (setting [5]), the Gini is listed as 0.51, the S10x is recorded as 0.00 and the “Pmax (partition index)” value is reported as 0.92. Also, the “S3uM (selectivity score S(3 μM))” value in assay [1] (setting [6]) is 0.03. Besides, in assay [2], the Ka-Gini score is reported as 0.997, the Pmax is reported as 0.820, the S10x is reported as 0.005 and the selectivity entropy was 0.590. Also, in assay [3], the Ka-Gini was 0.99 and the “entropies (selectivity entropy, Ssel)” value is 0.28.

As to `COc1cc2c(Nc3ccc(Br)cc3F)ncnc2cc1OCC1CCN(C)CC1` [ZD-6474, vandetanib], in assay [1] (setting [5]), the Gini is given as 0.79 and the S10x is 0.26. Also, in assay [2], the Ka-Gini score was 0.963, the Pmax was 0.117 and the S10x was 0.041. Moreover, in assay [3], the “number of kinases inhibited below 3 μM” value was determined as 79 kinases and the Ka-Gini is 0.94.
